# Measurements: paper PMC6497007, “Development, Validation of LC-MS/MS Method and Determination of Pharmacokinetic Parameters of the Stroke Neuroprotectant Neurounina-1 in Beagle Dog Plasma After Intravenous Administration” (Frontiers in Pharmacology, 2019)
# Read-outs that look alike come from different tables or passages of the source.
# Experiments:
# [1] = ref Molinaro et al., 2013; cited from earlier work
# [2] = system: beagle dogs; assay: Tolerability in beagle dogs after intravenous administration; assay type: in vivo, beagle dog; conditions: single i.v. 0.1, 0.3 and 1 mg/kg
# Protocol: (§1) Beagle dogs (n = 5) of both sexes, aged between 2 and 3 years old, weighing between 10 and 14 kg were provided by Camilo Castelo Branco University, Brazil. The dogs were housed in Domingos Alves Veterinary Hospital in individual rooms and fed with a standard canine food. They had free access to water. The dogs underwent rigorous veterinary control and were all considered healthy based on physical examination and laboratory analysis performed before initiation and after completion of each occasion of the study. At the end of the study, the animals were returned to their habitat. This study was carried out in accordance with the recommendations of the general ethical guidelines established by the Brazilian Society for Laboratory Animal Science (SBCAL). The protocol was approved by the Committee for Ethics in Animal Use – State University of Campinas (CEUA/UNICAMP, protocol n° 3340-1).
# After an overnight (8 h) fasting, a single intravenous dose of 0.1 mg/kg, 0.3 mg/kg, or 1 mg/kg neurounina-1 formulation was administered to beagle dogs, with 7 days washout period between each dose administration. Blood samples (5 mL) from a suitable antecubital vein were collected into heparin-containing tubes before and 0.03, 0.08, 0.17, 0.25, 0.33, 0.5, 1, 2, 3, 4, 6, 8, 12, and 24 h after the administration of each dose. A total of 210 mL of blood was collected during the study. […]
# [3] = system: transient middle cerebral artery occlusion (tMCAO); parameters: method as in Molinaro et al., 2013; conditions: ref Molinaro et al., 2013, cited from earlier work
# [4] = system: NCX1 and NCX2; parameters: method as in Molinaro et al., 2013; conditions: ref Molinaro et al., 2013; cited from earlier work
# [5] = Stability tests in beagle dog plasma (QC samples); assay type: in vitro ADME
# Protocol: To assess stability, QC plasma samples (1.5 and 400.0 ng/mL) were subjected to short-term (6 h) incubation at room temperature; four freeze/thaw (-20°C) cycles and 52 h in the autosampler at room temperature. Subsequently, the neurounina-1 concentrations were measured and compared with freshly prepared samples.
# [6] = Pharmacokinetics in plasma after a single intravenous administration to beagle dogs (LC-MS/MS, non-compartmental analysis); assay type: in vivo, beagle dog; conditions: for C0 / Vd / clearance / k el / half-life: both sexes, beagle, dog, plasma, iv; for C0 / AUC0-inf / AUC0-tlast / AUC%extrap: beagle dog plasma; for k el: read-out: Ke (converted)
# Protocol: Aliquots (0.05 mL) of each plasma sample were added to glass tubes followed by 0.05 mL of IS (ropivacaine 100 ng/mL). The tubes were vortexed for 5 s and 0.1 mL of acetonitrile were added. The samples were vortexed for 40 s, again, and then centrifuged at 2000 ×g for 5 min. The obtained supernatants were transferred to microvials for analysis.
# Neuronina-1 was separated in a 150 mm × 4.6 mm x 5 μm Phenomenex C18Luna reversed phase analytical column (Phenomenex Inc., CA, United States). The temperature of the column was maintained constant at 65°C. The mobile phase used was composed by methanol/acetonitrile/water (50/40/10, v/v/v) + 0.1% of formic acid + 1 M ammonium formate at a flow rate of 1 mL/min (split 1:3). The auto-sampler was maintained at room temperature.
# The mass spectrometer (Quattro Micro – Micromass, Waters, United Kingdom) equipped with an electrospray source in the ESI positive polarity mode (ES+) was configured for multiple reaction monitoring (MRM) to monitor the transitions 365.3 > 83.9 and 275.2 > 126.0, for neurounina-1 and ropivacaine, respectively. […] To optimize all MS parameters, a standard solution of the analyte and IS was infused into the mass spectrometer. The optimized values of ion spray voltage, collision energy, and cone voltage were, respectively 2800 (V), 20 (eV), and 20 (V) for neurounina-1 and 2800 (V), 15 (eV), and 15 (V) for ropivacaine. Data acquisition and analysis were performed using the software Masslynx 4.0 (Waters Corporation, Milford, MA, United States).
# as §1
# After an overnight (8 h) fasting, a single intravenous dose of 0.1 mg/kg, 0.3 mg/kg, or 1 mg/kg neurounina-1 formulation was administered to beagle dogs, with 7 days washout period between each dose administration. Blood samples (5 mL) from a suitable antecubital vein were collected into heparin-containing tubes before and 0.03, 0.08, 0.17, 0.25, 0.33, 0.5, 1, 2, 3, 4, 6, 8, 12, and 24 h after the administration of each dose. A total of 210 mL of blood was collected during the study. The blood samples treated with sodium heparin were centrifuged at approximately 2000 ×g for 10 min at 4°C and the plasma was stored at -20°C until analysis.
# Non-compartmental analysis was used to determine the pharmacokinetic parameters of neurounina-1 after the intravenous administration. The concentration at time zero (C0) was estimated by back-extrapolating from the elimination curve. The area under the plasma concentration vs. time curves from zero to the last detectable concentration (AUC0-tlast) were calculated by applying the linear-log trapezoid rule. Extrapolation of these areas to infinity (AUC0-inf) was done by adding the value Clast/ke to the calculated AUC0-tlast (where Clast = the last detectable concentration). Clearance (CL) was calculated by the formula dose/AUC0-inf. Volume of distribution (Vd) was calculated by the formula CL/ke. The WinNonlin software, version 6.4 (Pharsight Corp, Mountain View, CA, United States) was used. Statistical analysis was performed using GraphPad Prism software, version 3.2 (GraphPad Software, San Diego, California, United States).
# [7] = 0.1 mg/kg, mean, 0.1 mg/kg single i.v., beagle dog, n = 5
# [8] = 0.1 mg/kg, median, 0.1 mg/kg single i.v., beagle dog, n = 5
# [9] = 0.3 mg/kg, mean, 0.3 mg/kg single i.v., beagle dog, n = 5
# [10] = 0.3 mg/kg, median, 0.3 mg/kg single i.v., beagle dog, n = 5
# [11] = 1 mg/kg, mean, 1 mg/kg single i.v., beagle dog, n = 5
# [12] = 1 mg/kg, median, 1 mg/kg single i.v., beagle dog, n = 5
# [13] = mean, 0.1 mg/kg single i.v., n = 5
# [14] = mean, 0.3 mg/kg single i.v., n = 5
# [15] = mean, 1 mg/kg single i.v., n = 5
# [16] = median, 0.1 mg/kg single i.v., n = 5
# [17] = median, 0.3 mg/kg single i.v., n = 5
# [18] = median, 1 mg/kg single i.v., n = 5
smiles,measurement,setting,value
"O=C1CN=C(c2ccccc2)c2cc([N+](=O)[O-])ccc2N1CN1CCCC1 [Neurounina-1, 7-nitro-5-phenyl-1-(pyrrolidin-1-ylmethyl)-1H-benzo[e][1,4]diazepin-2(3H)-one]",lipophilicity index,[1],high lipophilicity index
same,toxicity,[1],low toxicity
same,"tolerability, behavior",[2],well tolerated
same,time after ischemia induction at which the effect was still notable,"[3]; 0.003 to 30 μg/kg intraperitoneally, mouse tMCAO",5 h
same,most effective dosage in an animal model of stroke,[3]; administered 3 h after stroke induction,0.03 µg/kg
same,protection in animal model of stroke,"[3]; dose of 0.003 μg/Kg, compared with 0.03 μg/Kg",less marked
same,half maximal effective concentration (EC50),[4],in the picomolar to low nanomolar range
same,"Stability, Accuracy(%)","[5]; Freeze/thaw (4cycles, -20°C), 1.5 ng/mL, beagle dog plasma",92.7%
same,"Stability, Accuracy(%)","[5]; Freeze/thaw (4cycles, -20°C), 400 ng/mL, beagle dog plasma",101.3%
same,"Stability, Accuracy(%)","[5]; Post-processing (52 h) in autosampler, 1.5 ng/mL, processed beagle dog plasma",96.0%
same,"Stability, Accuracy(%)","[5]; Post-processing (52 h) in autosampler, 400 ng/mL, processed beagle dog plasma",101.8%
same,"Stability, Accuracy(%)","[5]; Short-term (6 h) at room temperature, 1.5 ng/mL, beagle dog plasma",94.7%
same,"Stability, Accuracy(%)","[5]; Short-term (6 h) at room temperature, 400 ng/mL, beagle dog plasma",106.5%
same,Degradation in stability tests,"[5]; four freezing and thawing cycles, 6 h at room temperature, 52 h after processing in the self-injector, beagle dog plasma",no significant degradation
same,C0,"[6]; 0.1 mg/kg, mean, 0.1 mg/kg single i.v., back-extrapolated, n = 5",32.5 ng/mL
same,Vd,[6]; [7],130 L
same,clearance,[6]; [7],771 mL/min
same,k el,[6]; [7],9.72e-05 s⁻¹
same,half-life,"[6]; 0.1 mg/kg, mean, 0.1 mg/kg single i.v., beagle dog, n = 5, read-out: t1/2 (converted)",128 min
same,C0,"[6]; 0.1 mg/kg, median, 0.1 mg/kg single i.v., n = 5",30.6 ng/mL
same,Vd,[6]; [8],127 L
same,clearance,[6]; [8],795 mL/min
same,k el,[6]; [8],0.000106 s⁻¹
same,half-life,"[6]; 0.1 mg/kg, median, 0.1 mg/kg single i.v., beagle dog, n = 5, read-out: t1/2 (converted)",100 min
same,C0,"[6]; 0.3 mg/kg, mean, 0.3 mg/kg single i.v., back-extrapolated, n = 5",111 ng/mL
same,Vd,[6]; [9],154 L
same,clearance,[6]; [9],793 mL/min
same,k el,[6]; [9],8.33e-05 s⁻¹
same,half-life,"[6]; 0.3 mg/kg, mean, 0.3 mg/kg single i.v., beagle dog, n = 5, read-out: t1/2 (converted)",152 min
same,C0,"[6]; 0.3 mg/kg, median, 0.3 mg/kg single i.v., n = 5",100 ng/mL
same,Vd,[6]; [10],103 L
same,clearance,[6]; [10],591 mL/min
same,k el,[6]; [10],8.61e-05 s⁻¹
same,half-life,"[6]; 0.3 mg/kg, median, 0.3 mg/kg single i.v., beagle dog, n = 5, read-out: t1/2 (converted)",130 min
same,C0,"[6]; 1 mg/kg, mean, 1 mg/kg single i.v., back-extrapolated, n = 5",223 ng/mL
same,Vd,[6]; [11],211 L
same,clearance,[6]; [11],1150 mL/min
same,k el,[6]; [11],9.17e-05 s⁻¹
same,half-life,"[6]; 1 mg/kg, mean, 1 mg/kg single i.v., beagle dog, n = 5, read-out: t1/2 (converted)",122 min
same,C0,"[6]; 1 mg/kg, median, 1 mg/kg single i.v., n = 5",197 ng/mL
same,Vd,[6]; [12],224 L
same,clearance,[6]; [12],1250 mL/min
same,k el,[6]; [12],8.89e-05 s⁻¹
same,half-life,"[6]; 1 mg/kg, median, 1 mg/kg single i.v., beagle dog, n = 5, read-out: t1/2 (converted)",116 min
same,half-life,"[6]; beagle dog, overall statement, read-out: half-life (converted)",~120 min
same,AUC0-inf,[6]; [13],30.10 ng^∗h/mL
same,AUC0-tlast,[6]; [13],26.10 ng^∗h/mL
same,t1/2,"[6]; mean, 0.1 mg/kg single i.v., beagle dog, n = 5, 0.1 mg/kg",2.02 h
same,AUC0-inf,[6]; [14],122.42 ng^∗h/mL
same,AUC0-tlast,[6]; [14],115.81 ng^∗h/mL
same,t1/2,"[6]; mean, 0.3 mg/kg single i.v., beagle dog, n = 5, 0.3 mg/kg",2.36 h
same,AUC0-inf,[6]; [15],263.06 ng^∗h/mL
same,AUC0-tlast,[6]; [15],257.28 ng^∗h/mL
same,t1/2,"[6]; mean, 1 mg/kg single i.v., beagle dog, n = 5, 1 mg/kg",2.13 h
same,AUC0-inf,[6]; [16],26.44 ng^∗h/mL
same,AUC0-tlast,[6]; [16],23.00 ng^∗h/mL
same,AUC%extrap,[6]; [16],3.42%
same,AUC0-inf,[6]; [17],133.20 ng^∗h/mL
same,AUC0-tlast,[6]; [17],127.76 ng^∗h/mL
same,AUC%extrap,[6]; [17],4.56%
same,AUC0-inf,[6]; [18],184.06 ng^∗h/mL
same,AUC0-tlast,[6]; [18],179.65 ng^∗h/mL
same,AUC%extrap,[6]; [18],4.55%
same,Dose linearity of pharmacokinetics,"[6]; single i.v. doses up to 1.0 mg/kg, beagle dog",Linear pharmacokinetics
